One block for each molecule: values may come before it.
How the values were obtained:
AGS = assay: Cell proliferation inhibition, AGS (CellTiter-Glo 3D, 7 days); format: cell-based; conditions: Homo sapiens, 168 h
Method: • (a) Resuscitating cells in T75 cell culture flask: • (b) When the cell confluence reaches 80-90%, subculturing the cells.
The diluted test compound was added to a 384-well cell culture plate with a nanoliter pipetting system, and duplicate wells were set up. An equal volume of culture medium was added to the positive control group; and an equal volume of DMSO was added to the negative control group, then centrifugation was conducted at 1000 rpm for 1 min at room temperature.
Cells were inoculated into a) 384-well culture plate, with an equal volume of cells added to the negative control group, and only an equal volume of culture medium added to the positive control group. The plate was centrifuged at 1000 rpm for 1 min at room temperature, and the final DMSO concentration of the compound was 0.5% at last. The plate was placed in a 37° C., 5% CO2 constant temperature incubator for 7 days.
20 μL/well of CellTiter-Glo® 3D to b) was added to 384-well cell culture plate, and the plate was shook at 320 rpm for 20 min in the dark, and incubated at room temperature in the dark for 2 hrs.
The luminescence value was read using an Envision multi-functional microplate reader.
The inhibition rate (IR) of the test compound was calculated using the following formula: IR (%)=(1−(RLU compound−RLU blank control)/(RLU meidum control−RLU blank control))*100%. The inhibition rates of different concentrations of compounds were calculated in Excel, and then the inhibition curves were plotted and the related parameters (including the minimum inhibition rate, maximum inhibition rate and IC50) were calculated using GraphPad Prism software.

AsPC-1 = assay: Cell proliferation inhibition, AsPC-1 (CellTiter-Glo 3D, 7 days); format: cell-based; conditions: Homo sapiens, ASPC1, 168 h; AsPC-1, 7 days
In short: (§1)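 Cells exposed to compound (final DMSO 0.5%) in duplicate for 7 days at 37 °C, 5% CO2, then CellTiter-Glo 3D added with 20 min shaking and 2 h dark incubation before luminescence. Inhibition normalized to medium and blank controls; IC50, minimum and maximum inhibition from curve fits.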

GP2D = assay: Cell proliferation inhibition, GP2D (CellTiter-Glo 3D, 7 days); format: cell-based; conditions: 168 h
In short: as §1

in vivo = conditions: male, ICR, mouse, po, 30 mg/kg
Method: Male ICR mice, weighing 22-24 g, were fasted overnight and orally administered with 30 mg/kg of a solution of the compound of the present invention or the control compound [10% DMSO+60% PEG400+30% aqueous solution]. Blood was collected at 0.25, 0.5, 1.0, 2.0, 4.0, 6.0, 8.0, 12.0 and 24 h after administration of the compound of the present invention respectively, and the concentration of the compound of the present invention or the control compound in plasma was determined by LC/MS/MS.

[1] = test system: ERK phosphorylation in KRAS^G12D mutant cells (AGS); assay: AGS ERK phosphorylation inhibition experiment; format: cell-based; conditions: 1 hour compound, hEGF 10 minutes
Method: KRAS^G12D mutant cells (such as GP2D, AGS, etc.) were seeded in a 384-well plate and cultured overnight in a 37° C., 5% CO2 incubator.
200 nL of diluted compound was added with Echo 500 to a final DMSO concentration of 0.5%, and cultured in a 37° C., 5% CO2 incubator for 1 hour. Then hEGF was added for acting for 10 minutes.
The culture medium was discarded, and then cell fixative was added to fix the cells.
The cells were washed once with PBS, and then incubated with cold 100% methanol.
Methanol was removed and the cells were washed with PBS.
PBS was removed, and each well was added with Li-Cor blocking buffer, and blocked at room temperature for 1 hr.
The blocking solution was removed, and primary antibody mixture was added to each well, and incubated at […] 4° C. overnight.
The primary antibody mixture was removed, and the cells were washed by adding PBST for 3 times.
Secondary antibody mixture was added and incubated at room temperature in the dark for 45 min.
The secondary antibody mixture was removed, and the cells were washed by adding PBST for 3 times. Finally, PBST was suctioned out, and the plate was centrifuged upside down at 1000 rpm for 1 min.
The plate was read by Odyssey CLx.

SMILES: Nc1cc(Cl)c(C(F)(F)F)c(-c2ncc3c(N4C[C@H]5CC[C@@H](C4)N5)nc(OC[C@@]45CCCN4C[C@@]4(CC4(F)F)C5)nc3c2F)c1Cl [Example 35, 3-(4-((1R,5S)-3,8-diazabicyclo[3.2.1]octan-3-yl)-2-(((1S,7a′S)-2,2-difluorodihydro-1′H,3′H-spiro[cyclopropan-1,2′-pyrrolizin]-7a′(5′H)-yl)methoxy)-8-fluoropyridino[4,3-d]pyrimidin-7-yl)-2,5-dichloro-4-(trifluoromethyl)aniline]
- IC50 (AGS): 79.7 nM
- IC50 (AsPC-1): 45.7 nM
- IC50 (GP2D): 4.89 nM

SMILES: Cc1c(F)c(N)cc(-c2ncc3c(N4C[C@H]5CC[C@@H](C4)N5)nc(OC[C@@]45CCCN4C[C@@]4(CC4(F)F)C5)nc3c2F)c1C(F)(F)F [Example 42, 5-(4-((1R,5S)-3,8-diazabicyclo[3.2.1]octan-3-yl)-2-(((1S,7a'S)-2,2-difluorodihydro-1′H,3′H-spiro[cyclopropan-1,2′-pyrrolizin]-7a′(5′H)-yl)methoxy)-8-fluoropyridino[4,3-d]pyrimidin-7-yl)-2-fluoro-3-methyl-4-(trifluoromethyl)aniline]
- IC50 (AGS): 13.9 nM
- IC50 (AsPC-1): 8.83 nM
- IC50 (GP2D): 0.68 nM

SMILES: Nc1cc(-c2ncc3c(N4C[C@H]5CC[C@@H](C4)N5)nc(OC[C@@]45CCCN4C[C@@]4(CC4(F)F)C5)nc3c2F)c(C(F)(F)F)c(Cl)c1F [Example 41, 5-(4-((1R,5S)-3,8-diazabicyclo[3.2.1]octan-3-yl)-2-(((1S,7a'S)-2,2-difluorodihydro-1′H,3′H-spiro[cyclopropan-1,2′-pyrrolizin]-7a′(5′H)-yl)methoxy)-8-fluoropyridino[4,3-d]pyrimidin-7-yl)-3-chloro-2-fluoro-4-(trifluoromethyl)aniline]
- IC50 (AGS): 16.6 nM
- IC50 (AsPC-1): 14.2 nM
- IC50 (GP2D): 1.41 nM

SMILES: Nc1cc(F)c(Cl)c(-c2ncc3c(N4C[C@H]5CC[C@@H](C4)N5)nc(OC[C@@]45CCCN4C[C@@]4(CC4(F)F)C5)nc3c2F)c1Cl [Example 37, 3-(4-((1R,5S)-3,8-diazabicyclo[3.2.1]octan-3-yl)-2-(((1S,7a'S)-2,2-difluorodihydro-1′H,3′H-spiro[cyclopropan-1,2′-pyrrolizin]-7a′(5′H)-yl)methoxy)-8-fluoropyridino[4,3-d]pyrimidin-7-yl)-2,4-dichloro-5-fluoroaniline]
- IC50 (AGS): > 1000 nM
- IC50 (AsPC-1): > 1000 nM
- IC50 (GP2D): > 100 nM

SMILES: Nc1cc(Cl)c(C(F)(F)F)c(-c2ncc3c(N4C[C@H]5CC[C@@H](C4)N5)nc(OC[C@@]45CCCN4C[C@@]4(CC4(F)F)C5)nc3c2F)c1 [Example 27, 3-(4-((1R,5S)-3,8-diazabicyclo[3.2.1]octan-3-yl)-2-(((1S,7a'S)-2,2-difluorodihydro-1′H,3′H-spiro[cyclopropan-1,2′-pyrrolizin]-7a′(5′H)-yl)methoxy)-8-fluoropyridino[4,3-d]pyrimidin-7-yl)-5-chloro-4-(trifluoromethyl)aniline]
- AUC(0-inf) (in vivo): 5650 ng·h/mL
- AUC(0-t) (in vivo): 5090 ng·h/mL
- Cmax (in vivo): 953 ng/mL
- Tmax (in vivo): 0.25 h
- half-life (in vivo): 9.32 h
- IC50 (AGS): 5.24 nM
- IC50 (AsPC-1): 4.14 nM
- IC50 (GP2D): 0.38 nM

- IC50 [1]: 3.34 nM
SMILES: C#Cc1c(F)ccc2cc(O)cc(-c3ncc4c(N5C[C@H]6CC[C@@H](C5)N6)nc(OCC56CCCN5CC5(C6)CC5(F)F)nc4c3F)c12 (single isomer, unassigned) [Example 16B]

SMILES: C#Cc1c(F)ccc2cc(O)cc(-c3ncc4c(N5C[C@H]6CC[C@@H](C5)N6)nc(OC[C@@]56CCCN5C[C@@]5(CC5(F)F)C6)nc4c3F)c12 [Example 16B-1, 4-(4-((1R,5S)-3,8-diazabicyclo[3.2.1]octan-3-yl)-2-(((1S,7a'S)-2,2-difluorodihydro-1′H,3′H-spiro[cyclopropan-1,2′-pyrrolizin]-7a′(5′H)-yl)methoxy)-8-fluoropyridino[4,3-d]pyrimidin-7-yl)-5-ethynyl-6-fluoronaphthalen-2-ol]
- IC50 (AGS): 1.37 nM
- IC50 (AsPC-1): 1.24 nM
- IC50 (GP2D): 0.2 nM

SMILES: N#Cc1c(N)ccc(Cl)c1-c1ncc2c(N3C[C@H]4CC[C@@H](C3)N4)nc(OC[C@@]34CCCN3C[C@@]3(CC3(F)F)C4)nc2c1F [Example 51, 2-(4-((1R,5S)-3,8-diazabicyclo[3.2.1]octan-3-yl)-2-(((1S,7a'S)-2,2-difluorodihydro-1′H,3′H-spiro[cyclopropan-1,2′-pyrrolizin]-7a′(5′H)-yl)methoxy)-8-fluoropyridino[4,3-d]pyrimidin-7-yl)-6-amino-3-chlorobenzonitrile]
- IC50 (AGS): > 1000 nM
- IC50 (AsPC-1): > 1000 nM
- IC50 (GP2D): > 100 nM

SMILES: Nc1cc(F)c(C(F)(F)F)c(-c2ncc3c(N4C[C@H]5CC[C@@H](C4)N5)nc(OC[C@@]45CCCN4C[C@@]4(CC4(F)F)C5)nc3c2F)c1Cl [Example 36, 3-(4-((1R,5S)-3,8-diazabicyclo[3.2.1]octan-3-yl)-2-(((1S,7a'S)-2,2-difluorodihydro-1′H,3′H-spiro[cyclopropan-1,2′-pyrrolizin]-7a′(5′H)-yl)methoxy)-8-fluoropyridino[4,3-d]pyrimidin-7-yl)-2-chloro-5-fluoro-4-(trifluoromethyl)aniline]
- IC50 (AGS): 298 nM
- IC50 (AsPC-1): 167 nM
- IC50 (GP2D): 20.4 nM

SMILES: Cc1c(N)cnc(C(F)(F)F)c1-c1ncc2c(N3C[C@H]4CC[C@@H](C3)N4)nc(OC[C@@]34CCCN3C[C@@]3(CC3(F)F)C4)nc2c1F [Example 54, 5-(4-((1R,5S)-3,8-diazabicyclo[3.2.1]octan-3-yl)-2-(((1S,7a'S)-2,2-difluorodihydro-1′H,3′H-spiro[cyclopropan-1,2′-pyrrolizin]-7a′(5′H)-yl)methoxy)-8-fluoropyridino[4,3-d]pyrimidin-7-yl)-4-methyl-6-(trifluoromethyl)pyridin-3-amine]
- IC50 (AGS): > 1000 nM
- IC50 (AsPC-1): > 1000 nM
- IC50 (GP2D): > 100 nM

SMILES: Cc1cc(N)c(F)c(-c2ncc3c(N4C[C@H]5CC[C@@H](C4)N5)nc(OC[C@@]45CCCN4C[C@@]4(CC4(F)F)C5)nc3c2F)c1C(F)(F)F [Example 26, 3-(4-((1R,5S)-3,8-diazabicyclo[3.2.1]octan-3-yl)-2-(((1S,7a'S)-2,2-difluorodihydro-1′H,3′H-spiro[cyclopropan-1,2′-pyrrolizin]-7a′(5′H)-yl)methoxy)-8-fluoropyridino[4,3-d]pyrimidin-7-yl)-2-fluoro-5-methyl-4-(trifluoromethyl)aniline]
- AUC(0-inf) (in vivo): 3770 ng·h/mL
- AUC(0-t) (in vivo): 3380 ng·h/mL
- Cmax (in vivo): 462 ng/mL
- Tmax (in vivo): 0.25 h
- half-life (in vivo): 6.97 h

SMILES: N#Cc1c(N)sc2c(F)ccc(-c3ncc4c(N5CC6CCC(C5)N6)nc(OC[C@@]56CCCN5C[C@@]5(CC5(F)F)C6)nc4c3F)c12 [Example 24]
- AUC(0-inf) (in vivo): 1270 ng·h/mL
- AUC(0-t) (in vivo): 1250 ng·h/mL
- Cmax (in vivo): 461 ng/mL
- Tmax (in vivo): 0.5 h
- half-life (in vivo): 4.74 h
- IC50 (AsPC-1): 62 nM
- IC50 (GP2D): 2.5 nM

SMILES: Cc1c(F)cc2[nH]ncc2c1-c1ncc2c(N3C[C@H]4CC[C@@H](C3)N4)nc(OC[C@@]34CCCN3C[C@@]3(CC3(F)F)C4)nc2c1F [Example 22, (1S,7a'S)-7a′-(((4-((1R,5S)-3,8-diazabicyclo[3.2.1]octan-3-yl)-8-fluoro-7-(6-fluoro-5-methyl-1H-indazol-4-yl)pyridino[4,3-d]pyrimidin-2-yl)oxy)methyl)-2,2-difluorodihydro-1′H,3′H-spiro[cyclopropan-1,2′-pyrrolizin]]
- IC50 (AsPC-1): > 1000 nM
- IC50 (GP2D): > 100 nM

SMILES: Nc1cc(Cl)c(C(F)(F)F)c(-c2ncc3c(N4C[C@H]5CC[C@@H](C4)N5)nc(OC[C@@]45CCCN4C[C@@]4(CC4(F)F)C5)nc3c2F)c1F [Example 34, 3-(4-((1R,5S)-3,8-diazabicyclo[3.2.1]octan-3-yl)-2-(((1S,7a'S)-2,2-difluorodihydro-1′H,3′H-spiro[cyclopropan-1,2′-pyrrolizin]-7a′(5′H)-yl)methoxy)-8-fluoropyridino[4,3-d]pyrimidin-7-yl)-5-chloro-2-fluoro-4-(trifluoromethyl)aniline]
- IC50 (AGS): 21.5 nM
- IC50 (AsPC-1): 11.1 nM
- IC50 (GP2D): 1.03 nM
